Measured values as given in ChEMBL document CHEMBL1201862, “PubChem BioAssay data set” (2004).
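Interpolation was linear, between the two tested concentrations surrounding the appropriate level; five concentrations were tested over 48 hours in 96-well plates. GI50: concentration for 50% inhibition of growth.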 Active and inactive are the calls of the source. No stated cut-off is given here; in the data, active = GI50 up to about 1.1 µM and inactive = higher.

Assays:
Assay in all cases: growth of human tumour cells (NCI), 48 h
MDA-MB-435 = tested on: MDA-MB-435
CCRF-CEM = tested on: CCRF-CEM
TK-10 = tested on: TK-10
M14 = tested on: M14
OVCAR-5 = tested on: OVCAR-5
A498 = tested on: A498
SW-620 = tested on: SW-620
SF-295 = tested on: SF-295
HOP-92 = tested on: HOP-92
MOLT-4 = tested on: MOLT-4
OVCAR-4 = tested on: OVCAR-4
OVCAR-8 = tested on: OVCAR-8
NCI-H226 = tested on: NCI-H226
786-0 = tested on: 786-0
A549 = tested on: A549
NCI-H522 = tested on: NCI-H522
SNB-75 = tested on: SNB-75
SF-539 = tested on: SF-539
HL-60 = tested on: HL-60
DU-145 = tested on: DU-145

| Compound | GI50 (MDA-MB-435) | GI50 (CCRF-CEM) | GI50 (TK-10) | GI50 (M14) | GI50 (OVCAR-5) | GI50 (A498) | GI50 (SW-620) | GI50 (SF-295) | GI50 (HOP-92) | GI50 (MOLT-4) | GI50 (OVCAR-4) | GI50 (OVCAR-8) | GI50 (NCI-H226) | GI50 (786-0) | GI50 (A549) | GI50 (NCI-H522) | GI50 (SNB-75) | GI50 (SF-539) | GI50 (HL-60) | GI50 (DU-145) |
| --- | --- | --- | --- | --- | --- | --- | --- | --- | --- | --- | --- | --- | --- | --- | --- | --- | --- | --- | --- | --- |
| COc1ccc2c(c1)CCCc1c-2nc2ccccc2c1N | 12 µM (inactive) | 5.24 µM (inactive) | 10.7 µM (inactive) | 9.1 µM (inactive) | 10.2 µM (inactive) | 8.24 µM (inactive) | 10.7 µM (inactive) | 11.1 µM (inactive) | 5.73 µM (inactive) | 8.59 µM (inactive) | 12.6 µM (inactive) | 12.9 µM (inactive) | 13.8 µM (inactive) | 6.11 µM (inactive) | 12.9 µM (inactive) | 13.6 µM (inactive) | 10.7 µM (inactive) | 12.4 µM (inactive) | 13.9 µM (inactive) | 13.4 µM (inactive) |
| S=C(NCc1ccccn1)N/N=C/c1ccccn1 | 0.207 µM (active) | < 0.01 µM (active) | 0.0195 µM (active) | < 0.01 µM (active) | < 0.01 µM (active) | < 0.0113 µM (active) | < 0.01 µM (active) | 0.0482 µM (active) | < 0.0206 µM (active) | < 0.01 µM (active) | < 0.0371 µM (active) | < 0.032 µM (active) | < 0.0168 µM (active) | < 0.01 µM (active) | < 0.0188 µM (active) | < 0.01 µM (active) | 3.05 µM (inactive) | < 0.0159 µM (active) | < 0.01 µM (active) | 0.268 µM (active) |
| O=S(=O)(OI(O)CC(F)(F)F)C(F)(F)F | > 100 µM (inactive) | > 100 µM (inactive) | > 100 µM (inactive) | > 100 µM (inactive) | > 100 µM (inactive) | > 100 µM (inactive) | > 100 µM (inactive) | > 100 µM (inactive) | > 100 µM (inactive) | > 100 µM (inactive) | > 100 µM (inactive) | > 100 µM (inactive) | > 100 µM (inactive) | > 100 µM (inactive) | > 100 µM (inactive) | > 100 µM (inactive) | > 100 µM (inactive) | > 100 µM (inactive) | > 100 µM (inactive) | > 100 µM (inactive) |
| COc1ccc(C(c2cc(OC)c(OC)c(OC)c2)N2C(=O)CCC2C(=O)O)cc1 (stereo not given) | 21.8 µM (inactive) | 38.8 µM (inactive) | > 100 µM (inactive) | 38.3 µM (inactive) | 61.5 µM (inactive) | 77.1 µM (inactive) | 50.1 µM (inactive) | 24.3 µM (inactive) | > 100 µM (inactive) | 72.6 µM (inactive) | > 100 µM (inactive) | 41.8 µM (inactive) | 74.3 µM (inactive) | 73.1 µM (inactive) | 40.2 µM (inactive) | 52.1 µM (inactive) | 59 µM (inactive) | 21.2 µM (inactive) | 32 µM (inactive) | > 100 µM (inactive) |
| Brc1sc(Br)c2c1[C@H](Br)C[C@@H]2Br | 35.5 µM (inactive) | 31.1 µM (inactive) | > 100 µM (inactive) | 29.2 µM (inactive) | > 100 µM (inactive) | 40.3 µM (inactive) | 38.7 µM (inactive) | > 10 µM (inactive) | 21.5 µM (inactive) | 8.97 µM (inactive) | 23.5 µM (inactive) | 21.6 µM (inactive) | 23.1 µM (inactive) | 29.9 µM (inactive) | 30 µM (inactive) | 16.3 µM (inactive) | 30.1 µM (inactive) | 19.1 µM (inactive) | 30.7 µM (inactive) | 24.3 µM (inactive) |
| O=C(Cn1cc(Br)c(=O)[nH]c1=O)c1ccc(-c2ccccc2)cc1 | > 16.8 µM (inactive) | > 12.6 µM (inactive) | > 30.8 µM (inactive) | > 15.1 µM (inactive) | > 14.4 µM (inactive) | > 100 µM (inactive) | > 17.5 µM (inactive) | 10.9 µM (inactive) | 6.89 µM (inactive) | > 13 µM (inactive) | > 15.8 µM (inactive) | 6.76 µM (inactive) | 17 µM (inactive) | 10.5 µM (inactive) | > 17.4 µM (inactive) | 5.57 µM (inactive) | 1.85 µM (inactive) | 8.41 µM (inactive) | > 17.4 µM (inactive) | > 16.1 µM (inactive) |
| CN(C)CCCCN1c2ccccc2Sc2ccc(N=[N+]=[N-])cc21 | 2.06 µM (inactive) | 2.69 µM (inactive) | 12.1 µM (inactive) | 1.67 µM (inactive) | 3.3 µM (inactive) | 8.73 µM (inactive) | 4.82 µM (inactive) | 5.66 µM (inactive) | 3.56 µM (inactive) | 1.39 µM (inactive) | 6.43 µM (inactive) | 10 µM (inactive) | 6.11 µM (inactive) | 8.69 µM (inactive) | 9.93 µM (inactive) | 4.09 µM (inactive) | 2.62 µM (inactive) | 5.05 µM (inactive) | 2.06 µM (inactive) | 5.7 µM (inactive) |
